Assay results as given in patent EP2170885B1, “BETA-CARBOLINE ARYLSULFONAMIDES, METHOD FOR PREPARING THEM AND COMPOSITION COMPRISING THEM” (C4T S.C. a.r.l., priority 2007, dated 2008).

Legend:
Assay type in all cases: biochemical
MMP8 = target: T1, MMP8 (Homo sapiens, UniProt P22894); experiment: Fluorimetric enzymatic test, MMP8; settings: catalytic domain
T1 construct: in the form of the catalytic domains alone for the other MMPs
Procedure: (§1) Determination of the modulatory activity on the proteolytic action of the various MMPs tested (MMP1, 2, 3, 8, 9, 12, 13 and 14) using the compounds of formula (I) according to the present invention was performed via fluorometry on a 96-well plate.
(§2) The test compounds were dissolved in DMSO to a concentration of 5 mM or 50 mM. 5-fold or 10-fold (D5 or D10) serial dilutions of each compound were prepared so as to reach the nominal range of 5 assays on which the test was performed. Each of the dilutions was added to a well containing 150 µl of activated buffer (50 mM Tris/HCl; 0.1 M NaCl; 10 mM CaCl2; 0.05% Brij 35) together with the enzyme on which the test was performed.
(§3) The concentration of the enzyme [in full-length form in the case of MMP2; in the form of the catalytic domains alone for the other MMPs] ranged between 0.5 nM and 3 nM based on the activity of the enzyme on the fluorogenic substrate used (7-methoxycoumarin-4-yl)-Pro-Leu-Gly-Leu-DPA-Ala-Arg-NH2 (MCA-1) for MMP 1, 2, 3, 8, 9, 12 and 14) and MCA-Pro-(L-cyclohexylalanine)-Gly-(L-norvaline)-His-Ala-3-(2,4-dinitrophenyl)-L-2,3-diaminopropionyl)-NH2 for MMP13) (Knight et al. 1992. FEBS Lett. 296, 263; Knauper et al. 1996, J. Biol. Chem. 271, 1544).
(§4) After incubation for one hour at 37°C of the compound with the enzyme, 50 µl of a solution of fluorogenic substrate were added to a final concentration of between 2 and 7 µM.
(§5) The fluorometric readings were then taken using a Varian Cary Eclipse spectrofluorometer regulated on the specific wavelength for the substrate used, at time T0 and after 3 hours of incubation at 37° (T3h).

MMP9 = target: T2, MMP9 (Homo sapiens, UniProt P14780); experiment: Fluorimetric enzymatic test, MMP9; settings: catalytic domain
T2 construct: in the form of the catalytic domains alone for the other MMPs
T2 sequence (P14780 107-444 limits assumed, species assumed): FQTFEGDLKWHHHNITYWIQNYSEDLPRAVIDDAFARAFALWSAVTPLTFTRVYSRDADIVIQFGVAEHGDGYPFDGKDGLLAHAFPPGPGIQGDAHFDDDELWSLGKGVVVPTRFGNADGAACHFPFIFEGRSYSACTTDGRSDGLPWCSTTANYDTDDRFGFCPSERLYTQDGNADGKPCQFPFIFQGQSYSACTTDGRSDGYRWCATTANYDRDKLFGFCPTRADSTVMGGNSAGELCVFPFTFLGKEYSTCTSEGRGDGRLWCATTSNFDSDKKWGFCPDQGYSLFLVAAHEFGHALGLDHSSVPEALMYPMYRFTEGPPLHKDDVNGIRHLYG
Procedure: as §1, §2, §3, §4, §5

MMP13 = target: T3, MMP13 (Homo sapiens, UniProt P45452); experiment: Fluorimetric enzymatic test, MMP13; settings: catalytic domain
T3 construct: in the form of the catalytic domains alone for the other MMPs
Procedure: as §1, §2, §4, §5

MMP12 = target: T4, MMP12 (Homo sapiens, UniProt P39900); experiment: Fluorimetric enzymatic test, MMP12; settings: catalytic domain
T4 construct: in the form of the catalytic domains alone for the other MMPs
T4 sequence (P39900 106-263 limits assumed, species assumed): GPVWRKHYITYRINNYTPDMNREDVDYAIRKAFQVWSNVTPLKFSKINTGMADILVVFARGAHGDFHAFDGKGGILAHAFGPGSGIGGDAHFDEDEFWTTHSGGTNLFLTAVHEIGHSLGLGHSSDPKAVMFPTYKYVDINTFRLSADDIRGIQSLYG
Procedure: as §1, §2, §3, §4, §5

MMP1 = target: T5, MMP1 (Homo sapiens, UniProt P03956); experiment: Fluorimetric enzymatic test, MMP1; settings: for IC50: catalytic domain, fluorimetric test
T5 construct: in the form of the catalytic domains alone for the other MMPs
T5 sequence (P03956 98-276 limits assumed): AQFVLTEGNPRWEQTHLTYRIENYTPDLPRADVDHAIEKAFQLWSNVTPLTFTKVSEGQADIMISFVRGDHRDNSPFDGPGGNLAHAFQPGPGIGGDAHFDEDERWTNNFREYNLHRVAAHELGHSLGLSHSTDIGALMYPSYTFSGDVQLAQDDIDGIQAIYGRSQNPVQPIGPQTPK
Procedure: as §1, §2, §4, §5

MMP3 = target: T6, MMP3 (Homo sapiens, UniProt P08254); experiment: Fluorimetric enzymatic test, MMP3; settings: for IC50: catalytic domain, fluorimetric test
T6 construct: in the form of the catalytic domains alone for the other MMPs
T6 sequence (P08254 100-272 limits assumed, species assumed): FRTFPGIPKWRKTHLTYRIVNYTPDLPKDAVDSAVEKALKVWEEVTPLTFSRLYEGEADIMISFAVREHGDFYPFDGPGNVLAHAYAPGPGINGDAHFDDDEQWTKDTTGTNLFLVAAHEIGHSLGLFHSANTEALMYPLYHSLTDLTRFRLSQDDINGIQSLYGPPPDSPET
Procedure: as §1, §2, §4, §5

MMP14 = target: T7, MMP14 (Homo sapiens, UniProt P50281); experiment: Fluorimetric enzymatic test, MMP14; settings: for IC50: catalytic domain, fluorimetric test
T7 construct: in the form of the catalytic domains alone for the other MMPs
Procedure: as §1, §2, §3, §4, §5

MMP2 = target: T8, MMP2 (Homo sapiens, UniProt P08253); experiment: Fluorimetric enzymatic test, MMP2; settings: full enzyme, read-out: IC50MMP2 (full enzyme)
T8 construct: in full-length form in the case of MMP2
T8 sequence (P08253 110-660): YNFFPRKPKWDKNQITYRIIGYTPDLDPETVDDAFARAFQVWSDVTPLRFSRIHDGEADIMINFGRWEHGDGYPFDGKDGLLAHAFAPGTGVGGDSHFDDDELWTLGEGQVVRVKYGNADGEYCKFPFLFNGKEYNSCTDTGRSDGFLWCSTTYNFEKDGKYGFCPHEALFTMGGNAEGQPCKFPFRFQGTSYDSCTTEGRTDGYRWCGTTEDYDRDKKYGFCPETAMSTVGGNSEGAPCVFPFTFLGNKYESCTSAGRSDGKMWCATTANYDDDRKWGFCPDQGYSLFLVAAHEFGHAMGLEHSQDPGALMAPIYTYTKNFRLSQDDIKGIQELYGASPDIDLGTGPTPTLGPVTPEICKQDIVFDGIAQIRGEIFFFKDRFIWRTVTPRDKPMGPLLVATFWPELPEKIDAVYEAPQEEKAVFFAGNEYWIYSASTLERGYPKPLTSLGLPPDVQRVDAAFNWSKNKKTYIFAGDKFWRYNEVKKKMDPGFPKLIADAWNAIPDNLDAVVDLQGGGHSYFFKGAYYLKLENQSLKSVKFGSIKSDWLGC
Procedure: as §1, §2, §4, §5

[1] = relative to the limit value of 0.3 nM for MMP2

T1 sequence (P22894 100-262 limits assumed, species assumed): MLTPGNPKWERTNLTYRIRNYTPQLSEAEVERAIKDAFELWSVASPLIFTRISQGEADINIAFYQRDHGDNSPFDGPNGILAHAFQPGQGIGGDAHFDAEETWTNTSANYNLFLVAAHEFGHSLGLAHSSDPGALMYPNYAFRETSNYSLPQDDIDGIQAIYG

IC50 (MMP8) | IC50 (MMP9) | IC50 (MMP13) | IC50 (MMP12) | IC50 (MMP1) | IC50 (MMP3) | IC50 (MMP14) | IC50 (MMP2) | decrease in inhibitory power with respect to MMP1 (MMP1; [1]) | decrease in inhibitory power with respect to MMP3 (MMP3; [1]) | decrease in inhibitory power with respect to MMP14 (MMP14; [1]) | SMILES
1600 ± 200 nM | 2200 ± 800 nM | 15000 ± 5000 nM | 500 ± 100 nM | > 50000 nM | > 50000 nM | > 50000 nM | 600 ± 100 nM |  |  |  | COc1ccc(Oc2ccc(S(=O)(=O)N3CCc4c([nH]c5ccccc45)C3C(=O)O)cc2)cc1 (racemic) [Compound 2, (1RS)-2-(4"-methoxy-4'-phenoxybenzenesulfonyl)-1,2,3,4-tetrahydronorarmano-1-carboxylic acid]
3000 ± 700 nM | 7500 ± 5000 nM | 160 ± 50 nM | 300 ± 50 nM | > 50000 nM | 11000 ± 1000 nM | 30000 ± 2000 nM | 600 ± 800 nM |  |  |  | O=C(O)C1c2[nH]c3ccccc3c2CCN1S(=O)(=O)c1ccc(-c2ccccc2)cc1 (racemic) [Compound 3, (1RS)-2-(4'-phenylbenzenesulfonyl)-1,2,3,4-tetrahydro-norarmano-1-carboxylic acid]
 | 141000 nM |  |  |  |  |  | 15000 nM |  |  |  | Cc1ccc(S(=O)(=O)N2CCc3c([nH]c4ccccc34)C2C(=O)O)cc1 (racemic) [Compound 5, (1RS)-2-(4-methylbenzenesulfonyl)-1,2,3,4-tetrahydro-norarmano-1-carboxylic acid]
 | 62000 ± 5000 nM |  |  |  |  |  | 2500 ± 100 nM |  |  |  | O=C(O)C1c2[nH]c3ccccc3c2CCN1S(=O)(=O)c1ccc2ccccc2c1 (racemic) [Compound 6, (1RS)-2-(2-naphthylsulfonyl)-1,2,3,4-tetrahydro-norarmano-1-carboxylic acid]
 |  |  |  |  |  |  | > 125000 nM |  |  |  | CC(C)(C)c1ccc(S(=O)(=O)N2CCc3c([nH]c4ccccc34)C2C(=O)O)cc1 (racemic) [Compound 7, (1 RS)-2-(4'-t-butylbenzenesulfonyl)-1,2,3,4-tetrahydro-norarmano-1-carboxylic acid]
10000 ± 1000 nM | 15000 ± 4000 nM | 800 ± 200 nM | 2000 ± 200 nM | > 50000 nM | > 50000 nM | > 50000 nM | 10000 ± 2000 nM |  |  |  | O=C(O)C1c2[nH]c3ccccc3c2CCN1S(=O)(=O)c1ccc(Oc2ccc(Cl)cc2)cc1 (racemic) [Compound 8, (1 RS)-2-(4"-chloro-4'-phenoxybenzenesulfonyl)-1,2,3,4-tetrahydronorarmano-1-carboxylic acid]
21000 ± 2000 nM | 4000 ± 1000 nM | > 50000 nM | 2000 ± 300 nM | > 50000 nM | > 50000 nM | > 50000 nM | 28000 ± 1000 nM |  |  |  | O=C(O)C1c2[nH]c3ccccc3c2CCN1S(=O)(=O)c1ccc(Oc2ccc(F)cc2)cc1 (racemic) [Compound 9, (1 RS)-2-(4"-fluoro-4'phenoxybenzenesulfonyl)-1,2,3,4-tetrahydronorarmano-1-carboxylic acid]
4.7 ± 0.5 nM | 15 ± 2 nM | 3 nM | 4 ± 1.6 nM | 3000 ± 1000 nM | 600 nM |  | 14 ± 3 nM |  |  |  | O=C(NO)C1c2[nH]c3ccccc3c2CCN1S(=O)(=O)c1ccc(-c2ccccc2)cc1 (racemic) [Compound 11, (1R,S)-2-(4'biphenylsulfonyl)-1,2,3,4-tetrahydro-norarmano-N-hydroxy-1-carboxamide]
< 0.5 nM | < 0.5 nM | < 0.5 nM | < 0.5 nM | 350 ± 100 nM | 30000 ± 10000 nM | 5 ± 1 nM | < 0.3 nM |  |  |  | COc1ccc(Oc2ccc(S(=O)(=O)N3CCc4c([nH]c5ccccc45)C3C(=O)NO)cc2)cc1 (racemic) [Compound 12, (1 RS)-2-(4"-methoxy-4'-phenoxybenzenesulfonyl)-1,2,3,4-tetrahydronorarmano-N-hydroxy-1-carboxamide]
 |  |  |  | > 50000 nM |  | 30 nM | < 0.3 nM | about 16 000 fold | ~830 fold | ~100 fold | O=C(NO)C1c2[nH]c3ccccc3c2CCN1S(=O)(=O)c1ccc(Oc2ccc(Cl)cc2)cc1 (racemic) [Compound 13, (1 RS)-2-(4"-chloro-4'-phenoxybenzenesulfonyl)-1,2,3,4-tetrahydronorarmano-N-hydroxy-1-carboxamide]
< 0.5 nM | < 0.5 nM | < 0.5 nM |  | 340 ± 100 nM | 600 ± 200 nM | 3.2 ± 0.1 nM | < 0.3 nM |  |  |  | O=C(NO)C1c2[nH]c3ccccc3c2CCN1S(=O)(=O)c1ccc(Oc2ccc(F)cc2)cc1 (racemic) [Compound 14, (1RS)-2-(4"-fluoro-4'-phenoxybenzenesulfonyl)-1,2,3,4-tetrahydronorarmano-N-hydroxy-1-carboxamide]
< 0.5 nM |  |  | < 0.5 nM |  |  |  |  |  |  |  | CC1(C)SCCN(S(=O)(=O)c2ccc(Oc3ccncc3)cc2)[C@H]1C(=O)NO [prinomastat, (3S)-N-hydroxy-4-(4-(pyrid-4-yloxyl)benzenesulfonyl)-2,2-dimethyltetrahydro-2H-1,4-thiazine-3-carboxamide, reference compound]

SMILES | IC50 (MMP8) | IC50 (MMP9) | IC50 (MMP13) | IC50 (MMP12) | IC50 (MMP1) | IC50 (MMP3) | IC50 (MMP14) | IC50 (MMP2) | decrease in inhibitory power with respect to MMP1 (MMP1; [1]) | decrease in inhibitory power with respect to MMP3 (MMP3; [1]) | decrease in inhibitory power with respect to MMP14 (MMP14; [1])
CCCCOc1ccc(S(=O)(=O)N2CCc3c([nH]c4ccccc34)C2C(=O)O)cc1 (racemic) [Compound 4, (1 RS)-2-(4'-butoxybenzenesulfonyl)-1,2,3,4-tetrahydro-norarmano-1-carboxylic acid] | 30000 nM | 24000 ± 1000 nM | 2000 ± 500 nM | 4500 ± 1000 nM | > 50000 nM |  |  | 680 ± 200 nM |  |  | 
CCCCOc1ccc(S(=O)(=O)N2CCc3c([nH]c4ccccc34)C2C(=O)NO)cc1 (racemic) [Compound 10, (1R,S)-2-(4'-butoxybenzenesulfonyl)-1,2,3,4-tetrahydro-norarmano-N-hydroxy-1-carboxamide] | < 0.5 nM | 6 ± 2 nM | 2000 ± 500 nM | < 0.5 nM | 20000 ± 2000 nM | 4000 ± 1500 nM | 50 ± 11 nM | 7 ± 2.5 nM |  |  | 
COc1ccc2[nH]c3c(c2c1)CCNC3C(=O)O (stereo not shown) [6-methoxy-1,2,3,4-tetrahydronorarmano-1-carboxylic acid, reference compound] | 200 nM |  |  |  |  |  |  |  |  |  | 
